The values that follow come from patent US9045468B2, “2,5-methano- and 2,5-ethano-tetrahydrobenzazepine derivatives and use thereof to block reuptake of norepinephrine, dopamine, and serotonin” (Albany Molecular Research, Inc., priority 2010, dated 2015).

Usually IC50 stands for the concentration at which inhibition is half-maximal.

Read-outs that look alike come from different tables or passages of the source.

One experiment deals with hSERT (Homo sapiens (Human), UniProt P31645). The experiment can be described thus: SERT radioligand binding assay ([125I]RTI-55, HEK-293 membranes). The protocol: (§1) The medium was removed from the flasks and the cells rinsed with HBSS without Ca and without Mg. The cells were then incubated for 5-10 minutes in 10 mM Tris-Cl, pH 7.5, 5 mM EDTA before the cells were lifted with a combination of pipetting and scraping, as needed. The cell suspension was collected into centrifuge bottles and homogenized for 30 seconds with a Polytron homogenizer. The suspension was centrifuged for 30 minutes at 32,000×g, 4° C. The supernatant was decanted and the pellet resuspended and homogenized in 50 mM Tris-Cl, pH 7.5, 1 mM EDTA for 10 seconds. The suspension was then centrifuged again for 30 minutes at 32,000×g, 4° C. The supernatant was decanted and the pellet resuspended in 50 mM Tris-Cl, pH 7.5, 1 mM EDTA and briefly homogenized. A Bradford assay (Bio-rad) was performed and the membrane preparation diluted to 2 mg/ml with 50 mM Tris-Cl, pH 7.5, 1 mM EDTA. Aliquots were prepared, and then frozen and stored at −80° C.
Compounds were dissolved in 100% DMSO at a concentration 100 times the desired highest assay concentration, serially diluted 1:3 in 100% DMSO, and 0.4 μl/well of each solution was dispensed to a Nunc polypropylene, round bottom, 384-well plate. […] The contents of the assay plate were then transferred to a Millipore MultiscreenHTS GF/B filter plate which was pretreated with 0.5% PEI for at least one hour. The plate was vacuum filtered and washed with 7 washes of […] 50 mM Tris-Cl, pH 7.5, 120 mM NaCl, 5 mM KCl chilled to 4° C. The filtration and washing were completed in less than 90 seconds. The plates were air-dried overnight, 12 μl/well of MicroScint scintillation fluid added, and the plates counted in a Trilux.
(§2) Each plate was run in triplicate, and the concentration response curve thus generated was fit using the four-parameter dose response equation, Y=Bottom+(Top-Bottom)/(1+10^((Log IC50−X)*HillSlope)) in order to determine the IC50 value for each compound. The radioligand concentration chosen for each assay corresponds to the Kd concentration determined through saturation binding analysis for each assay.

Another experiment has as its target hDAT (Homo sapiens (Human), UniProt Q01959). The experiment can be described thus: DAT radioligand binding assay ([125I]RTI-55, HEK-293 membranes). The protocol: as §1, with “Recombinant HEK-293 cells expressing either the hSERT, hDAT, or hNET proteins were harvested from T-175 flasks as follows. The medium” for “The medium”
Compounds were dissolved in 100% DMSO at a concentration 100 times the desired highest assay concentration, serially diluted 1:3 in 100% DMSO, and 0.4 μl/well of each solution was dispensed to a Nunc polypropylene, round bottom, 384-well plate. […] 20 ul/well of a 2× membrane preparation (12.5 μg/ml in 30 mM sodium phosphate buffer, pH 7.9 at 4° C.) and 20 μl/well of a 2× radioligand solution (250 pM [^125I]RTI-55 in 30 mM sodium phosphate buffer, pH 7.9 at 4° C.) were added to the well and the reaction incubated for 1 hour at room temperature. The contents of the assay plate were then transferred to a Millipore MultiscreenHTS GF/B filter plate which was pretreated with 0.5% PEI for at least one hour. The plate was vacuum-filtered and washed with 7 washes of 100 μl/well 50 mM Tris-Cl, pH 7.5, 120 mM NaCl, 5 mM KCl chilled to 4° C. The filtration and washing were completed in less than 90 seconds. The plates were air-dried overnight, 12 μl/well of MicroScint scintillation fluid added, and the plates counted in a Trilux.
as §2

Another experiment deals with hNET (Homo sapiens (Human), UniProt P23975). The experiment can be described thus: NET radioligand binding assay ([3H]nisoxetine, HEK-293 membranes). The protocol:
as §1
Compounds were dissolved in 100% DMSO at a concentration 100 times the desired highest assay concentration, serially diluted 1:3 in 100% DMSO, and 1.0 μl/well of each solution was dispensed to a Nunc polypropylene, round bottom, 384-well plate. […] 50 μl/well of a 2× membrane preparation (0.4 mg/ml in 50 mM Tris-Cl, pH 7.5, 120 mM NaCl, 5 mM KCl) and 50 μl/well of a 2× radioligand solution (4 nM [^3H]nisoxetine in 50 mM Tris-Cl, pH 7.5, 120 mM NaCl, 5 mM KCl) were added to the well and the reaction incubated for 1 hour at room temperature. The contents of the assay plate were then transferred to a Millipore MultiscreenHTS GF/B filter plate which was pretreated with 0.5% PEI for at least one hour. The plate was vacuum filtered and washed with 7 washes of 100 μl/well 50 mM Tris-Cl, pH 7.5, 120 mM NaCl, 5 mM KCl chilled to 4° C. The filtration and washing were completed in less than 90 seconds. The plates were air-dried overnight, 12 μl/well of MicroScint scintillation fluid added, and the plates counted in a Trilux.
as §2

[1] abbreviates: recombinant HEK-293 membranes, [125I]RTI-55, read-out: Binding Affinity (IC50, nM) SERT.
[2] abbreviates: recombinant HEK-293 membranes, [125I]RTI-55, read-out: Binding Affinity (IC50, nM) DAT.
Setting [3] is: recombinant HEK-293 membranes, [3H]nisoxetine, read-out: Binding Affinity (IC50, nM) NET.

Chain of hSERT (P31645 whole entry): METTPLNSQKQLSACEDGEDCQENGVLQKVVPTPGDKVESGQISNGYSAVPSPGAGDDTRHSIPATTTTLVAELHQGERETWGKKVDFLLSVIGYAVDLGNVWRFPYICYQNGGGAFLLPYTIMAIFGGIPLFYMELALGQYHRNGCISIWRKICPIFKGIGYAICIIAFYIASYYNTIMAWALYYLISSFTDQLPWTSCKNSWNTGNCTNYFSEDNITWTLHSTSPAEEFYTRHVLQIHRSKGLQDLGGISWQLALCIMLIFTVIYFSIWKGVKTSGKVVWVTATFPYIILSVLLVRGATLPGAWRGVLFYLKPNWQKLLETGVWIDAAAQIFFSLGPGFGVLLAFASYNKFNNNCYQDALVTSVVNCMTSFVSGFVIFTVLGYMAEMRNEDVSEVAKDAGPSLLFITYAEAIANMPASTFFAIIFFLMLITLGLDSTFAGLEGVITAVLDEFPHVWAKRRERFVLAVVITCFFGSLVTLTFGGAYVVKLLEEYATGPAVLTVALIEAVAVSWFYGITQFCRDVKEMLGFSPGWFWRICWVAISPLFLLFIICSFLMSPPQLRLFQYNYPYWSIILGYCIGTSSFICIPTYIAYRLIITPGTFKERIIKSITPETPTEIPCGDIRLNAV
Chain of hDAT (Q01959 whole entry): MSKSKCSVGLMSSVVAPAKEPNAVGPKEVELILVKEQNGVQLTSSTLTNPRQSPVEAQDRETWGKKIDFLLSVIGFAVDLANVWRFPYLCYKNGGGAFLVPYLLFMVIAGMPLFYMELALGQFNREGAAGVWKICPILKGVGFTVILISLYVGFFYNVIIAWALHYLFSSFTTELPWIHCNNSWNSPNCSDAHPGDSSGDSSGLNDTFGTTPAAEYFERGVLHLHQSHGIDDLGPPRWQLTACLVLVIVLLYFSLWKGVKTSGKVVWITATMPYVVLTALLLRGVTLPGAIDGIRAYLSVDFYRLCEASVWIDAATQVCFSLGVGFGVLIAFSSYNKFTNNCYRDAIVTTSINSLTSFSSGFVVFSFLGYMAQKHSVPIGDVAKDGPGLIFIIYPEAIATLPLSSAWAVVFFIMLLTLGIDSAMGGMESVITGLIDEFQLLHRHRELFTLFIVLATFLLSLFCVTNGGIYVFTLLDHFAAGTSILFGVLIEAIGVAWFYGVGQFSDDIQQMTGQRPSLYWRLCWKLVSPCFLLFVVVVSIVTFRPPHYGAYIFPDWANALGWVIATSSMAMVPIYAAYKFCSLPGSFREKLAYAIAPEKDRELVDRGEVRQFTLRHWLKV
Chain of hNET (P23975 whole entry): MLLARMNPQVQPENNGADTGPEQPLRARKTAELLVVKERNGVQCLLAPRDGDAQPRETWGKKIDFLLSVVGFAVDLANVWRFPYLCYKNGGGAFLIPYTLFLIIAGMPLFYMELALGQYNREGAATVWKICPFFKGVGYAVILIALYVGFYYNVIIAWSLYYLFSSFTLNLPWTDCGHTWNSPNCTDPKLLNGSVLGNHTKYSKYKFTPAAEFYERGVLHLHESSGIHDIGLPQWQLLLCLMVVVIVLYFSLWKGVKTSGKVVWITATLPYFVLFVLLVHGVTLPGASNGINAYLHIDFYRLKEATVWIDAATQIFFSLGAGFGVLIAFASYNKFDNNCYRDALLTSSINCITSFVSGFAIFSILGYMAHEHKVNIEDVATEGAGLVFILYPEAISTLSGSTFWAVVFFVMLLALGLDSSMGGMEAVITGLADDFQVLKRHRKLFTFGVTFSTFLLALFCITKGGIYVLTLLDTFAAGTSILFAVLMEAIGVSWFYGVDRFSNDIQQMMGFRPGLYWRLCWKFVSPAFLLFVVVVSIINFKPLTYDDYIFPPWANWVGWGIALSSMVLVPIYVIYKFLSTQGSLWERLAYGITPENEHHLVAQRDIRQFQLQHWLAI

As to `Fc1ccc(C23CCN(Cc4cc(-c5ccc(C(F)(F)F)nn5)ccc42)C3)cc1Cl` (single isomer, unassigned) [56(+), 5-(3-chloro-4-fluorophenyl)-2,5-methano-8-(6-(trifluoromethyl)pyridazin-3-yl)-2,3,4,5-tetrahydro-1H-benzo[c]azepine], the values for the IC50 at hSERT (setting [1]), at hDAT (setting [2]) and at hNET (setting [3]) were 2.4 nM, 11.4 nM and 78.6 nM, respectively.

Consider `Fc1ccc(C23CCN(Cc4cc(-c5ccc(C(F)(F)F)nn5)ccc42)C3)cc1Cl` (single isomer, unassigned) [56(−), 5-(3-chloro-4-fluorophenyl)-2,5-methano-8-(6-(trifluoromethyl)pyridazin-3-yl)-2,3,4,5-tetrahydro-1H-benzo[c]azepine], for which the IC50 at hSERT (setting [1]) came out at 57.8 nM; at hDAT (setting [2]), 243 nM; on hNET (setting [3]), 798 nM.

Consider `COc1ccc2c(c1)CN1CCC2(c2ccc(Cl)cc2)CC1` [Example 12, 5-(4-chlorophenyl)-8-methoxy-2,5-ethano-2,3,4,5-tetrahydro-1H-2-benzo[c]azepine], for which the values for the IC50 at hSERT (setting [1]), at hDAT (setting [2]) and on hNET (setting [3]) were 7.8 nM, 52 nM and 881 nM, respectively.

Take `Oc1ccc2c(c1)CN1CCC2(c2ccc(Cl)cc2)CC1` [Example 13, 5-(4-chlorophenyl)-2,5-ethano-2,3,4,5-tetrahydro-1H-2-benzo[c]azepin-8-ol]: the figures for the IC50 on hSERT (setting [1]), at hDAT (setting [2]) and at hNET (setting [3]) were 16.3 nM, 21.1 nM and 691 nM, respectively.

With `FC(F)(F)c1ccc(-c2ccc3c(c2)CN2CCC3(c3ccc(Cl)cc3)CC2)nn1` [Example 15, 5-(4-chlorophenyl)-2,5-ethano-8-(6-(trifluoromethyl)pyridazin-3-yl)-2,3,4,5-tetrahydro-1H-benzo[c]azepine], the IC50 is 2.6 nM on hSERT, 121 nM on hDAT and 384 nM at hNET (setting [3]).

Take `Clc1ccc(C23CCN(CC2)Cc2cc(-c4cncnc4)ccc23)cc1` [Example 16, 5-(4-chlorophenyl)-2,5-ethano-8-(pyrimidin-5-yl)-2,3,4,5-tetrahydro-1H-benzo[c]azepine]: the values for the IC50 on hSERT (setting [1]), on hDAT (setting [2]) and at hNET (setting [3]) were 7.3 nM, 156 nM and 2930 nM, respectively.

On to `Cc1nnc2ccc(-c3ccc4c(c3)CN3CCC4(c4ccc(Cl)cc4)CC3)cn12` [Example 20, 5-(4-chlorophenyl)-2,5-ethano-8-(3-methyl-[1,2,4]triazolo[4,3-a]pyridin-6-yl)-2,3,4,5-tetrahydro-1H-benzo[c]azepine], for which the values for the IC50 on hSERT (setting [1]), on hDAT (setting [2]) and on hNET (setting [3]) were 12.1 nM, 220 nM and 1020 nM, respectively.

For `Clc1ccc(C23CCN(CC2)Cc2cc(-c4cnc5ccccc5n4)ccc23)cc1` [Example 21, 5-(4-chlorophenyl)-2,5-ethano-8-(quinoxalin-2-yl)-2,3,4,5-tetrahydro-1H-benzo[c]azepine], the results for the IC50 on hSERT (setting [1]), at hDAT (setting [2]) and at hNET (setting [3]) were 5.2 nM, 353 nM and 1540 nM, respectively.

As to `O=c1n(-c2ccc3c(c2)CN2CCC3(c3ccc(Cl)cc3)CC2)nc2ccccn12` [Example 23, 2-(5-(4-chlorophenyl)-2,5-ethano-2,3,4,5-tetrahydro-1H-benzo[c]azepin-8-yl)-[1,2,4]triazolo[4,3-a]pyridin-3(2H)-one], the IC50 came to 1.5 nM on hSERT (setting [1]), 37.5 nM at hDAT (setting [2]) and 176 nM at hNET (setting [3]).

On to `O=c1ccccn1-c1ccc2c(c1)CN1CCC2(c2ccc(Cl)cc2)CC1` [Example 24, 1-(5-(4-chlorophenyl)-2,5-ethano-2,3,4,5-tetrahydro-1H-benzo[c]azepin-8-yl)pyridin-2(1H)-one], for which the results for the IC50 on hSERT (setting [1]), at hDAT (setting [2]) and on hNET (setting [3]) were 7.3 nM, 856 nM and 5330 nM, respectively.

Consider `Cc1nnc(-c2ccc3c(c2)CN2CCC3(c3ccc(Cl)cc3)CC2)s1` [Example 25, 2-(5-(4-chlorophenyl)-2,5-ethano-2,3,4,5-tetrahydro-1H-benzo[c]azepin-8-yl)-5-methyl-1,3,4-thiadiazole], for which the results for the IC50 at hSERT (setting [1]), on hDAT (setting [2]) and at hNET (setting [3]) were 6.4 nM, 169 nM and 392 nM, respectively.

Consider `N#Cc1cccc(-c2ccc3c(c2)CN2CCC3(c3ccc(Cl)cc3)CC2)c1` [Example 27, 3-(5-(4-chlorophenyl)-2,5-ethano-2,3,4,5-tetrahydro-1H-benzo[c]azepin-8-yl)benzonitrile], for which the IC50 on hSERT was 3.4 nM; on hDAT (setting [2]), 135 nM; on hNET it was 355 nM.

Turning to `Clc1ccc(C23CCN(CC2)Cc2cc(N4CCOCC4)ccc23)cc1` [Example 28, 4-(5-(4-chlorophenyl)-2,5-ethano-2,3,4,5-tetrahydro-1H-benzo[c]azepin-8-yl)morpholine], the results for the IC50 on hSERT (setting [1]), at hDAT (setting [2]) and on hNET (setting [3]) were 8 nM, 58.9 nM and 438 nM, respectively.

With `c1cc(C23CCN(CC2)Cc2cc(N4CCOCC4)ccc23)ccc1N1CCOCC1` [Example 29, 4-(2,5-ethano-5-(4-morpholinophenyl)-2,3,4,5-tetrahydro-1H-benzo[c]azepin-8-yl)morpholine], the values for the IC50 on hSERT (setting [1]), at hDAT (setting [2]) and at hNET (setting [3]) were 328 nM, 5260 nM and 5460 nM, respectively.

Turning to `CCS(=O)(=O)N1CCN(c2ccc3c(c2)CN2CCC3(c3ccc(Cl)cc3)CC2)CC1` [Example 30, 5-(4-chlorophenyl)-8-(4-(ethylsulfonyl)piperazin-1-yl)-2,5-ethano-2,3,4,5-tetrahydro-1H-benzo[c]azepine], the IC50 on hSERT (setting [1]) is 10 nM; at hDAT (setting [2]), 13.6 nM; at hNET (setting [3]), 55.8 nM.

Take `CCS(=O)(=O)N1CCN(c2ccc(C34CCN(CC3)Cc3cc(N5CCN(S(=O)(=O)CC)CC5)ccc34)cc2)CC1` [Example 31, 8-(4-(ethylsulfonyl)piperazin-1-yl)-5-(4-(4-(ethylsulfonyl)piperazin-1-yl)phenyl)-2,5-ethano-2,3,4,5-tetrahydro-1H-benzo[c]azepine]: the IC50 at hSERT (setting [1]) worked out at 2320 nM; on hDAT (setting [2]), 4020 nM; at hNET (setting [3]), 8300 nM.

For `Clc1ccc(C23CCN(CC2)Cc2cc(Oc4cnccn4)ccc23)cc1` [Example 33, 5-(4-chlorophenyl)-2,5-ethano-8-(pyrazin-2-yloxy)-2,3,4,5-tetrahydro-1H-benzo[c]azepine], the results for the IC50 at hSERT (setting [1]), at hDAT (setting [2]) and at hNET (setting [3]) were 6.1 nM, 116 nM and 910 nM, respectively.
